Molecules are shown by their SMILES.

The assay deals with ULK. Kind of assay: ULK radiometric assay (33P incorporation onto MBP substrate, glass fiber capture filter). The settings on record: ULK Biochemical activity; 20 uM ATP, 0.2 mg/mL MBP; averages of at least two independent experiments. The procedure: ULK activity was measured using a radiometric assay, to measure the incorporation of radiolabelled ^33P onto MBP substrate using a glass fiber capture filter method. Reaction conditions were 0.2 mg/mL MBP, 20 uM ATP (0.25 μCi/well), 50 mM Tris HCl, pH7.5, 10 mM MgCl2, 0.1% beta-mercaptoethanol, 0.1 mM EGTA, 0.01% BSA. Ten point Half log Compound dilution series were prepared in 100% DMSO and added to the reaction to give final assay concentration of 10% DMSO. Compounds were tested in duplicate and values normalized to 10% DMSO only controls. The data were fitted to a four parameter fit equation and the IC50 values shown are averages of at least two independent experiments.
One may read the IC50 as the concentration at which inhibition is half-maximal. Take `COc1cc2c(cc1Nc1ncc(C(F)(F)F)c(NCCCn3ccnc3)n1)CNCC2` [Example 70, N4-(3-imidazol-1-ylpropyl)-N2-(6-methoxy-1,2,3,4-tetrahydroisoquinolin-7-yl)-5-(trifluoromethyl)pyrimidine-2,4-diamine]: the IC50 was in the range of 0.2 to 1 µM.

`COc1cc2c(cc1Nc1ncc(C(F)(F)F)c(N3CCC(NC(C)=O)CC3)n1)CNCC2` [Example 71, N-[1-[2-[(6-methoxy-1,2,3,4-tetrahydroisoquinolin-7-yl)amino]-5-(trifluoromethyl)pyrimidin-4-yl]-4-piperidyl]acetamide] displayed a concentration for half-maximal inhibition (IC50) of no less than 1 µM.

On to `CNC(=O)c1ccc(Nc2ncc(C(F)(F)F)c(NCCCN3CCCCC3=O)n2)c(OC)c1` [Example 39, 3-Methoxy-N-methyl-4-[[4-[3-(2-oxo-1-piperidyl)propylamino]-5-(trifluoromethyl)pyrimidin-2-yl]amino]benzamide], for which the IC50 was no less than 1 µM.

On to `COc1cc2c(cc1Nc1ncc(C(F)(F)F)c(NCCCN3CCCCC3=O)n1)CNCC2` [Example 20, 1-[3-[[2-[(6-Methoxy-1,2,3,4-tetrahydroisoquinolin-7-yl)amino]-5-(trifluoromethyl)pyrimidin-4-yl]amino]propyl]piperidin-2-one], for which the half-maximal inhibitory concentration (IC50) is less than 0.2 µM.

In turn, `COc1cc2c(cc1Nc1ncc(C(F)(F)F)c(NC3CCN(C(C)=O)CC3)n1)CNCC2` [Example 68, 1-[4-[[2-[(6-Methoxy-1,2,3,4-tetrahydroisoquinolin-7-yl)amino]-5-(trifluoromethyl)pyrimidin-4-yl]amino]-1-piperidyl]ethanone] displayed a concentration for half-maximal inhibition (IC50) of no less than 1 µM.

Molecule `Fc1cccc(Nc2ncc(C(F)(F)F)c(NCCCN3CCCC3)n2)c1` [Example 5, N2-(3-fluorophenyl)-N4-(3-(pyrrolidin-1-yl)propyl)-5-(trifluoromethyl)pyrimidine-2,4-diamine] showed a half-inhibitory concentration (IC50) of no less than 1 µM.

For the molecule `COc1cc2c(cc1Nc1ncc(C(F)(F)F)c(NCCCN3CCCCC3=O)n1)CN(C)CC2` [Example 24, 1-[3-[[2-[(6-Methoxy-2-methyl-3,4-dihydro-1H-isoquinolin-7-yl)amino]-5-(trifluoromethyl)pyrimidin-4-yl]amino]propyl]piperidin-2-one], the IC50 was less than 0.2 µM.

For the molecule `CC(C)Oc1nn(C)cc1Nc1ncc(C(F)(F)F)c(NCCCN2CCCCC2=O)n1` [Example 49, 1-[3-[[2-[(3-Isopropoxy-1-methyl-pyrazol-4-yl)amino]-5-(trifluoromethyl)pyrimidin-4-yl]amino]propyl]piperidin-2-one], the IC50 is no less than 1 µM.

In turn, `O=C1CCCCN1CCCNc1nc(Nc2cccc3c2OCC3)ncc1C(F)(F)F` [Example 31, 1-[3-[[2-(2,3-Dihydrobenzofuran-7-ylamino)-5-(trifluoromethyl)pyrimidin-4-yl]amino]propyl]piperidin-2-one] returned a concentration for half-maximal inhibition (IC50) of no less than 1 µM.

Regarding `O=C(CCNc1nc(Nc2cc3c(cc2Cl)CNCC3)ncc1C(F)(F)F)N[C@@H](C1CC1)C(F)(F)F` [Example 2, (S)-3-(2-(7-chloro-1,2,3,4-tetrahydroisoquinolin-6-ylamino)-5-(trifluoromethyl)pyrimidin-4-ylamino)-N-(1-cyclopropyl-2,2,2-trifluoroethyl)propanamide], the IC50 was less than 0.2 µM.

`COc1cc2c(cc1Nc1ncc(C(F)(F)F)c(NCCCn3cccn3)n1)CNCC2` [Example 73, N2-(6-methoxy-1,2,3,4-tetrahydroisoquinolin-7-yl)-N4-(3-pyrazol-1-ylpropyl)-5-(trifluoromethyl)pyrimidine-2,4-diamine] showed a concentration for half-maximal inhibition (IC50) of no less than 1 µM.

Take `COc1cc2c(cc1Nc1ncc(C(F)(F)F)c(NCCCN3CCCCC3=O)n1)C(=O)N(C)C2` [Example 37, 5-Methoxy-2-methyl-6-[[4-[3-(2-oxo-1-piperidyl)propylamino]-5-(trifluoromethyl)pyrimidin-2-yl]amino]isoindolin-1-one]: the concentration for half-maximal inhibition (IC50) is no less than 1 µM.

Molecule `O=C(CCNc1nc(Nc2cccc(OC3CCNCC3)c2)ncc1C(F)(F)F)N1CCOCC1` [Example 80, 1-Morpholino-3-[[2-[3-(4-piperidyloxy)anilino]-5-(trifluoromethyl)pyrimidin-4-yl]amino]propan-1-one] displayed an IC50 of 0.2 to 1 µM.

`COc1cc(C(=O)NC2CCNCC2)ccc1Nc1ncc(C(F)(F)F)c(NCCCN2CCCCC2=O)n1` [Example 42, 3-Methoxy-4-[[4-[3-(2-oxo-1-piperidyl)propylamino]-5-(trifluoromethyl)pyrimidin-2-yl]amino]-N-(4-piperidyl)benzamide]: the IC50 was 0.2 to 1 µM.

`O=C1CCCCN1CCCNc1nc(Nc2cc3c(cc2C(F)(F)F)CCNC3)ncc1C(F)(F)F` [Example 45, 1-[3-[[5-(Trifluoromethyl)-2-[[6-(trifluoromethyl)-1,2,3,4-tetrahydroisoquinolin-7-yl]amino]pyrimidin-4-yl]amino]propyl]piperidin-2-one] displayed a 50% inhibitory concentration (IC50) of less than 0.2 µM.

On to `CN1CCc2cc(Nc3ncc(C4CC4)c(NCCCN4CCCCC4=O)n3)ccc2C1` [Example 11, 1-(3-((5-Cyclopropyl-2-((2-methyl-1,2,3,4-tetrahydroisoquinolin-6-yl)amino)pyrimidin-4-yl)amino)propyl)piperidin-2-one], for which the half-maximal inhibitory concentration (IC50) is less than 0.2 µM.

Molecule `CCN(CC)C(=O)C1CCCN(c2nc(Nc3cc4c(cc3OC)CCNC4)ncc2C(F)(F)F)C1` (stereo not shown) [Example 69, N,N-diethyl-1-[2-[(6-methoxy-1,2,3,4-tetrahydroisoquinolin-7-yl)amino]-5-(trifluoromethyl)pyrimidin-4-yl]piperidine-3-carboxamide] displayed an IC50 of no less than 1 µM.

Regarding `FC(F)(F)c1cnc(Nc2ccc(CCN3CCCC3)cc2)nc1NCc1cc[nH]n1` [Example 86, N4-(1H-pyrazol-3-ylmethyl)-N2-[4-(2-pyrrolidin-1-ylethyl)phenyl]-5-(trifluoromethyl)pyrimidine-2,4-diamine], the IC50 lay in the range of 0.2 to 1 µM.

With `CN1CCc2cc(Nc3ncc(C4CC4)c(NCCCN4CCCC4)n3)ccc2C1` [Example 15, 5-Cyclopropyl-N2-(2-methyl-1,2,3,4-tetrahydroisoquinolin-6-yl)-N4-(3-(pyrrolidin-1-yl)propyl)pyrimidine-2,4-diamine], the IC50 was no less than 1 µM.

`FC(F)(F)c1cnc(Nc2ccc3c(c2)CCNC3)nc1NCCc1cnc[nH]1` [Example 65, N4-[2-(1H-imidazol-5-yl)ethyl]-N2-(1,2,3,4-tetrahydroisoquinolin-6-yl)-5-(trifluoromethyl)pyrimidine-2,4-diamine] came in with an IC50 of less than 0.2 µM.

The molecule `O=C1CCCN1CCCNc1nc(Nc2ccc3c(c2)CCNC3)ncc1C(F)(F)F` [Example 66, 1-[3-[[2-(1,2,3,4-tetrahydroisoquinolin-6-ylamino)-5-(trifluoromethyl)pyrimidin-4-yl]amino]propyl]pyrrolidin-2-one] registered a half-maximal inhibitory concentration (IC50) of less than 0.2 µM.

Consider `CC(=O)N1CCc2cc(Cl)c(Nc3ncc(C(F)(F)F)c(NCCCN4CCCCC4=O)n3)cc2C1` [Example 56, 1-[3-[[2-[(2-Acetyl-6-chloro-3,4-dihydro-1H-isoquinolin-7-yl)amino]-5-(trifluoromethyl)pyrimidin-4-yl]amino]propyl]piperidin-2-one], for which the concentration for half-maximal inhibition (IC50) lay in the range of 0.2 to 1 µM.

`CN1CCc2ccc(Nc3ncc(C4CC4)c(NCCCN4CCCC4=O)n3)cc2C1` [Example 10, 1-(3-((5-Cyclopropyl-2-((2-methyl-1,2,3,4-tetrahydroisoquinolin-7-yl)amino)pyrimidin-4-yl)amino)propyl)pyrrolidin-2-one] displayed an IC50 of less than 0.2 µM.

As to `COc1cc(C(=O)N(C)C)ccc1Nc1ncc(C(F)(F)F)c(NCCCN2CCCCC2=O)n1` [Example 40, 3-Methoxy-N,N-dimethyl-4-[[4-[3-(2-oxo-1-piperidyl)propylamino]-5-(trifluoromethyl)pyrimidin-2-yl]amino]benzamide], the half-inhibitory concentration (IC50) is no less than 1 µM.

Regarding `COc1cc(C(=O)O)ccc1Nc1ncc(C(F)(F)F)c(NCCCN2CCCCC2=O)n1` [Example 36, 3-Methoxy-4-[[4-[3-(2-oxo-1-piperidyl)propylamino]-5-(trifluoromethyl)pyrimidin-2-yl]amino]benzoic acid], the concentration for half-maximal inhibition (IC50) is no less than 1 µM.

`COc1cc2c(cc1Nc1ncc(C(F)(F)F)c(NCCCN3CCCC3=O)n1)CNCC2` [Example 81, 1-[3-[[2-[(6-Methoxy-1,2,3,4-tetrahydroisoquinolin-7-yl)amino]-5-(trifluoromethyl)pyrimidin-4-yl]amino]propyl]pyrrolidin-2-one] showed an IC50 of less than 0.2 µM.

Take `CN(C)CCCN(C)c1nc(Nc2ccc3c(c2)CCNC3)ncc1C(F)(F)F` [Example 64, N4-[3-(dimethylamino)propyl]-N4-methyl-N2-(1,2,3,4-tetrahydroisoquinolin-6-yl)-5-(trifluoromethyl)pyrimidine-2,4-diamine]: the half-maximal inhibitory concentration (IC50) lay within 0.2 to 1 µM.

On to `COc1cc2c(cc1Nc1ncc(C(F)(F)F)c(NCC3CNCCO3)n1)CNCC2` (stereo not shown) [Example 78, N2-(6-methoxy-1,2,3,4-tetrahydroisoquinolin-7-yl)-N4-(morpholin-2-ylmethyl)-5-(trifluoromethyl)pyrimidine-2,4-diamine], for which the IC50 lay in the range of 0.2 to 1 µM.

`COc1nn(CC(C)(C)O)cc1Nc1ncc(C(F)(F)F)c(NCCCN2CCCCC2=O)n1` [Example 28] registered a half-inhibitory concentration (IC50) of less than 0.2 µM.

As to `COc1nn(CCN(C)C)cc1Nc1ncc(C(F)(F)F)c(NCCCN2CCCCC2=O)n1` [Example 3, 1-(3-((2-((1-(2-(Dimethylamino)ethyl)-3-methoxy-1H-pyrazol-4-yl)amino)-5-(trifluoromethyl)pyrimidin-4-yl)amino)propyl) piperidin-2-one], the 50% inhibitory concentration (IC50) was less than 0.2 µM.

With `CN(C)S(=O)(=O)c1cc2c(c(Nc3ncc(C(F)(F)F)c(NCCCN4CCCCC4=O)n3)c1)OCC2` [Example 50, N,N-dimethyl-7-[[4-[3-(2-oxo-1-piperidyl)propylamino]-5-(trifluoromethyl)pyrimidin-2-yl]amino]-2,3-dihydrobenzofuran-5-sulfonamide], the 50% inhibitory concentration (IC50) is no less than 1 µM.

These data come from US20240208934A1, “ULK1/2 INHIBITORS AND THEIR USE THEREOF” (LifeArc, priority 2021, published 2024).
